From US12280026B2, “Use of repirinast in the prophylaxis or treatment of renal fibrosis or kidney disease” (ALGERNON PHARMACEUTICALS INC., priority 2018, dated 2025)
“Also recorded” adds a separate entry of the source. Marks after values point to notes of the source that are not given here.

Columns and labels:
[1] = Example 2: UUO mice, mean body weight change following surgery; type: in vivo, C57BL/6 mice; conditions: for Mean Body Weight Change Following Surgery, Day 1 / Mean Body Weight Change Following Surgery, Day 4 / Mean Body Weight Change Following Surgery, Day 7 / Mean Body Weight Change Following Surgery, Day 10 / Mean Body Weight Change Following Surgery, Day 14: UUO, female C57BL/6 mice, PO QD days 1-14; for Body weight course after surgery, in words: Example 2
Procedure: (§1) In this example, healthy young female C57BL/6 mice were used for the study. At the commencement of the study, mice were between 9-12 weeks of age, weighing 23-25 g. All the mice were obtained from Charles River Laboratories.
(§2) The mice were maintained in a controlled environment with a temp 70-72° F., humidity 30-70%, with a photo cycle of 12 hours of light and 12 hours of dark. They were provided with Harlan Teklad 2018 standard maintenance mouse chow diet and drinking water ad libitium.
(§3) After five days of acclimatization, the mice were grouped according to their body weight. There were ten groups of ten mice each. Nine groups of ten mice each underwent UUO as described above and the other group of ten mice underwent a sham procedure to serve as a no-surgery control.
(§4) Following surgery, the mice were divided into 10 individual study groups of 10 mice each and, following post-surgical recovery, administered a once-daily oral treatment for 14 days. The mice in 8 of the 10 study groups had all received the UUO surgical ligation and were treated individually with a distinct pharmacologic compound as set out in Table 6. The mice in 2 of the 10 study groups were treated individually with a pharmaceutically acceptable vehicle with no active ingredient. The pharmaceutically acceptable vehicle in all groups was 0.5% carboxymethyl cellulose (CMC). All mice were sacrificed with CO2 on post-surgical day 15.
(§5) The dose selected for the animal studies was determined by taking the maximum known human daily dose, dividing by the average weight of an adult (˜60-70 kg) to get a human mg/kg dose. That number was multiplied by 12 to convert to a mouse dose based on conventional dosing tables. See Nair and Jacob, J Basic Clin Pharm March 2016-May 2016, 7(2):27-31.
Body weight: The body weights were measured on days 1, 4, 7, 10 and 14 using a laboratory balance.
Body weights were measured on post-surgical days 1, 4, 7, 10 and 14 as previously described. The mean body weight change of each study group was calculated using the body weight average of all mice in each study group.

[2] = tested on: C57BL/6 mice with UUO surgical ligation; test: Example 2: UUO mice, kidney weight evaluation; type: in vivo; conditions: for Excised Left Kidney: ligated kidney; for Right Kidney (g): unligated kidney
Procedure: as §1, §2, §3, §4, §5
Kidney weight: The UUO was then examined in situ to ensure that the surgical ligation ties remained patent. Both the ligated (UUO) and non-ligated kidneys were removed for analysis. Weights of both kidneys were measured using a laboratory balance.
(§6) The data are presented as the mean obtained from Microsoft Excel or GraphPad Prism version 5.00 for Windows (GraphPad Software, San Diego California USA). Data were analyzed using two-way ANOVA using Bonferroni and Tamhane post-tests. Differences between groups were considered significant at p<0.05.
Kidney Weight Evaluation: Kidney weight, which indicates functional and pathological changes in the kidney, was evaluated by measuring the weight of both the ligated (UUO) and non-ligated kidneys as previously described. The ligated and non-ligated kidney weights of each study group consisted of the respective kidney weight averages of all mice in each study group.

[3] = tested on: C57BL/6 mice with UUO surgical ligation; test: Example 2: UUO mice, renal fibrosis evaluation (Sirius Red histology score); type: in vivo; conditions: for Level of kidney fibrosis / histology score compared to vehicle or other agents, in words: mg/kg PO QD: Telmisartan 3, Bemithyl 200, Repirinast 30, Telmisartan+Bemithyl 3+200, Telmisartan+Repirinast 3+30, Cenicriviroc 40, Bromantane 40; for Histology Score: Sirius Red, 0=normal, 1=light, 2=moderate, 3=severe, group mean; for Histology Score / Reduction of fibrosis (%) (versus vehicle): UUO, female C57BL/6 mice, PO QD days 1-14; for Reduction of fibrosis (%) (versus vehicle): from histology score
Procedure: as §1, §2, §3, §4, §5
Histopathology: Formalin-fixed kidney cross-section samples were subjected histopathological scoring with Sirius Red staining, and imaged at a magnification of ×20, using standard techniques. All three sections were stained and evaluated. The analysis was performed by a board-certified veterinarian pathologist. The presence of interstitial damage and severity score was assessed according to the following criteria: 0=normal; 1=light; 2=moderate; 3=severe.
as §6
Renal Fibrosis Evaluation: Renal fibrosis and interstitial damage was evaluated by histochemical staining of renal cross-sections with Sirius Red as previously described. The Histology Score of each study group consisted of the histology score average of all mice in each study group.

[4] = mg/kg: Telmisartan 3, Bemithyl 200, Repirinast 30, Telmisartan+Bemithyl 3+200, Telmisartan+Repirinast 3+30, Cenicriviroc 40, Bromantane 40
[5] = mg/kg PO QD: Repirinast 30, Bemithyl 200, Bromantane 40, Telmisartan+Bemithyl 3+200
[6] = ligated kidney drained, group mean, UUO, female C57BL/6 mice, PO QD days 1-14, mg/kg: Telmisartan 3, Bemithyl 200, Repirinast 30, Telmisartan+Bemithyl 3+200, Telmisartan+Repirinast 3+30, Cenicriviroc 40, Bromantane 40
[7] = group mean, UUO, female C57BL/6 mice, PO QD days 1-14, mg/kg: Telmisartan 3, Bemithyl 200, Repirinast 30, Telmisartan+Bemithyl 3+200, Telmisartan+Repirinast 3+30, Cenicriviroc 40, Bromantane 40
[8] = group mean, UUO, female C57BL/6 mice, PO QD days 1-14, Repirinast 90 mg/kg

SMILES: CCSc1nc2ccccc2[nH]1 [Bemithyl, 2-Ethylsulfanyl-1H-benzoimidazole]
- Mean Body Weight Change Following Surgery, Day 1 [1, 4]: 0 g
- Mean Body Weight Change Following Surgery, Day 4 [1, 4]: 0.16 g
- Mean Body Weight Change Following Surgery, Day 7 [1, 4]: 0.16 g
- Mean Body Weight Change Following Surgery, Day 10 [1, 4]: 0.36 g
- Mean Body Weight Change Following Surgery, Day 14 [1, 4]: 0.54 g
- Body weight course after surgery, in words [1, 5]: no initial decrease in body weight; also recorded: even greater than that of the sham surgery control group; also recorded: appeared to reverse the negative effects of UUO on body weight gain
- Weight of the drained left kidney compared to the vehicle group, in words ([2]; Example 2, Telmisartan 3 + Repirinast 30 mg/kg, Bemithyl 200 mg/kg): a similar effect was observed
- Drained Left Kidney [2, 6]: 0.1565 g
- Excised Left Kidney [2, 7]: 0.398 g
- Right Kidney (g) [2, 7]: 0.1333* g
- Level of kidney fibrosis / histology score compared to vehicle or other agents, in words ([3]; Example 2): significantly reduce the level of kidney fibrosis compared to vehicle; also recorded: significant improvement in kidney fibrosis
- Histology Score [3, 4]: 1.15**
- Reduction of fibrosis (%) (versus vehicle) [3, 4]: 52%

SMILES: Brc1ccc(NC2C3CC4CC(C3)CC2C4)cc1 (stereo not drawn) [Bromantane, N-(4-Bromophenyl)adamantan-2-amine]
- Mean Body Weight Change Following Surgery, Day 1 [1, 4]: 0 g
- Mean Body Weight Change Following Surgery, Day 4 [1, 4]: 0.11 g
- Mean Body Weight Change Following Surgery, Day 7 [1, 4]: 0.36 g
- Mean Body Weight Change Following Surgery, Day 10 [1, 4]: 0.15 g
- Mean Body Weight Change Following Surgery, Day 14 [1, 4]: 0.55 g
- Body weight course after surgery, in words [1, 5]: no initial decrease in body weight; also recorded: appeared to reverse the negative effects of UUO on body weight gain
- Drained Left Kidney [2, 6]: 0.1775 g
- Excised Left Kidney [2, 7]: 0.3995 g
- Right Kidney (g) [2, 7]: 0.143* g
- Level of kidney fibrosis / histology score compared to vehicle or other agents, in words ([3]; Example 2): significantly reduce the level of kidney fibrosis compared to vehicle; also recorded: greatest numerical reduction in the histology score; also recorded: superior to both Telmisartan; also recorded: significant improvement in kidney fibrosis; also recorded: highest reductions in both fibrosis and BUN levels
- Histology Score [3, 4]: 1.02*#
- Reduction of fibrosis (%) (versus vehicle) [3, 4]: 58%

SMILES: Cc1ccc2c([nH]c(=O)c3c(=O)cc(C(=O)OCCC(C)C)oc32)c1C [Repirinast, 3-methylbutyl 7,8-dimethyl-4,5-dioxo-5,6-dihydro-4H-pyrano[3,2-c]quinoline-2-carboxylate]
- Mean Body Weight Change Following Surgery, Day 1 ([1]; Repirinast 90 mg/kg): 0 g
- Mean Body Weight Change Following Surgery, Day 1 [1, 4]: 0 g
- Mean Body Weight Change Following Surgery, Day 4 ([1]; Repirinast 90 mg/kg): 0.31 g
- Mean Body Weight Change Following Surgery, Day 4 [1, 4]: 0.34 g
- Mean Body Weight Change Following Surgery, Day 7 ([1]; Repirinast 90 mg/kg): 0.60 g
- Mean Body Weight Change Following Surgery, Day 7 [1, 4]: 0.35 g
- Mean Body Weight Change Following Surgery, Day 10 ([1]; Repirinast 90 mg/kg): 0.86 g
- Mean Body Weight Change Following Surgery, Day 10 [1, 4]: 0.83 g
- Mean Body Weight Change Following Surgery, Day 14 ([1]; Repirinast 90 mg/kg): 1.08 g
- Mean Body Weight Change Following Surgery, Day 14 [1, 4]: 0.86 g
- Body weight course after surgery, in words ([1]; Repirinast 90 mg/kg PO QD): no initial decrease in body weight; also recorded: appeared to reverse the negative effects of UUO on body weight gain
- Body weight course after surgery, in words [1, 5]: no initial decrease in body weight
- Drained Left Kidney ([2]; ligated kidney drained, group mean, UUO, female C57BL/6 mice, PO QD days 1-14, Repirinast 90 mg/kg): 0.1648 g
- Drained Left Kidney [2, 6]: 0.1808 g
- Excised Left Kidney [2, 8]: 0.3681 g
- Excised Left Kidney [2, 7]: 0.412 g
- Right Kidney (g) [2, 8]: 0.1378* g
- Right Kidney (g) [2, 7]: 0.1468* g
- Level of kidney fibrosis compared to vehicle, in words ([3]; Example 2, Repirinast 90 mg/kg PO QD): significantly reduce the level of kidney fibrosis compared to vehicle; also recorded: significant improvement in kidney fibrosis
- Level of kidney fibrosis / histology score compared to vehicle or other agents, in words ([3]; Example 2): statistically insignificant improvements
- Histology Score ([3]; Repirinast 90 mg/kg): 1.19*#
- Histology Score [3, 4]: 1.90
- Reduction of fibrosis (%) (versus vehicle) ([3]; Repirinast 90 mg/kg): 51%
- Reduction of fibrosis (%) (versus vehicle) [3, 4]: 21%

SMILES: CCCc1nc2c(C)cc(-c3nc4ccccc4n3C)cc2n1Cc1ccc(-c2ccccc2C(=O)O)cc1 [Telmisartan, 2-(4-{[4-Methyl-6-(1-methyl-1H-1,3-benzodiazol-2-yl)-2-propyl-1H-1,3-benzodiazol-1-yl]methyl}phenyl)benzoic acid]
- Mean Body Weight Change Following Surgery, Day 1 [1, 4]: 0 g
- Mean Body Weight Change Following Surgery, Day 4 [1, 4]: -0.24 g
- Mean Body Weight Change Following Surgery, Day 7 [1, 4]: 0.39 g
- Mean Body Weight Change Following Surgery, Day 10 [1, 4]: 0.45 g
- Mean Body Weight Change Following Surgery, Day 14 [1, 4]: 0.58 g
- Drained Left Kidney (g) [2, 6]: 0.1853* g
- Excised Left Kidney [2, 7]: 0.411 g
- Right Kidney (g) [2, 7]: 0.1263* g
- Level of kidney fibrosis / histology score compared to vehicle or other agents, in words ([3]; Example 2): statistically insignificant improvements; also recorded: did not show significant reductions
- Histology Score [3, 4]: 1.62*#
- Reduction of fibrosis (%) (versus vehicle) [3, 4]: 33%
